In PMC7463582, “Modulation and Protection Effects of Antioxidant Compounds against Oxidant Induced Developmental Toxicity in Zebrafish” (Antioxidants, 2020):
pEC50: −log10 of the molar value. Where a name gives a salt, the structure may show the parent alone.

Tests used:
[1] = system: zebrafish embryos; experiment: Zebrafish embryo test: lethality and dysmorphogenesis after exposure to a single oxidative stress-related compound; assay type: in vivo, Zebrafish (Danio rerio); conditions: for pEC50: read-out: EC50 (effective concentration 50 for dysmorphogenesis)
Procedure: (§1) To characterize the effects on embryonic development produced by compounds related to OS, ZF embryos were exposed to OS inducers, modulators of antioxidant status and antioxidants. For compounds which were dissolved in DMSO and diluted with Danieau’s buffer, a vehicle negative control group with 0.05% DMSO in 0.3× Danieau’s buffer was assayed.
(§2) From 26 to 50 hpf, embryos were incubated with 0.3× Danieau’s buffer with or without DMSO, depending on the dissolution of the compound of study.
(§3) Exposure to OS inducers was conducted from 26 to 50 hpf to select the working concentrations of these compounds for the experimental design. In this case, from 2 to 26 hpf, embryos were incubated with Danieau’s buffer with or without DMSO, depending on the dissolution of the compound of study.
(§4) Exposure of ZF embryos was semi-static and was carried out in 6-well plates (Greiner Bio-one, Frickenhausen, Germany). Ten embryos per group were selected and randomly distributed into the wells and filled with 5mL of the corresponding solution of the compound. Embryos were incubated at 26 ± 1 °C with a dark–light cycle of 10–14 h. Renewal of the medium and of the solutions was made every 24 h. Evaluation of the embryos was performed at different time points. Lethality was determined at 8, 26, and 50 hpf based on egg coagulation, the absence of tail detachment, or somite formation and the absence of heartbeat. Dysmorphogenic effects were evaluated at 50 hpf by the total morphological score system described by. For each compound of study, at least three independent experiments were performed using embryos from different spawning events (n = 3).
(§5) The percentage of lethality and of dysmorphogenesis was calculated per compound at every tested concentration, and the concentration–response curves for these effects were plotted.

[2] = system: zebrafish embryos; conditions: for Change of dysmorphogenic effects of LPS / Shift of the LPS lethality concentration–effect curve / Shift of the TCHQ concentration–response curves for lethality and dysmorphogenesis / Shift of the tBOOH concentration–response curves (lethality and dysmorphogenesis) / Mortality of embryos exposed to tBOOH after pre-exposure: pre-exposure to the modulator at MTC; for Change of dysmorphogenic effects of LPS / Shift of the LPS lethality concentration–effect curve: then LPS, versus LPS alone; for Shift of the TCHQ concentration–response curves for lethality and dysmorphogenesis: then TCHQ, versus TCHQ alone; for Shift of the tBOOH concentration–response curves (lethality and dysmorphogenesis) / Mortality of embryos exposed to tBOOH after pre-exposure: then tBOOH; for Shift of the tBOOH concentration–response curves (lethality and dysmorphogenesis): versus tBOOH alone
[3] = Zebrafish embryo test: lethality and dysmorphogenesis after exposure to a single oxidative stress-related compound; assay type: in vivo, Zebrafish (Danio rerio); conditions: zebrafish, in vivo, read-out: LC50 (lethal concentration 50)
Procedure: as §1, §2, §3, §4, §5

[4] = system: zebrafish embryos; experiment: animal or person; conditions: Danio rerio
[5] = system: zebrafish embryos; experiment: animal or person; conditions: Danio rerio, read-out: EC50 (95% CI) for dysmorphogenesis of tBOOH
[6] = in vivo; conditions: zebrafish
[7] = exposure window 2–26 hpf, not calculated, reason in footnote
[8] = Danio rerio, exposure window 2–26 hpf, evaluated at 50 hpf

Row | Compound | MTC (maximum tolerable concentration) ([1]; exposure window 2–26 hpf) [µM] | Change of dysmorphogenic effects of LPS [2] | Shift of the LPS lethality concentration–effect curve [2] | Shift of the TCHQ concentration–response curves for lethality and dysmorphogenesis [2] | Shift of the tBOOH concentration–response curves (lethality and dysmorphogenesis) [2] | LC50 [3, 7] [µM] | pEC50 [1, 8] | further results
1 | CCCCS(=N)(=O)CCC(N)C(=O)O (racemic) [DL-buthionine sulfoximine (BSO), DL-buthionine sulfoximine] | 50 | no significant effects were observed | shifted the lethality concentration–effect curves significantly | statistically significant drift in the concentration–effect curves for lethality and dysmorphogenesis to lower concentrations of TCHQ | a significant shift in the concentration–response curves to lower concentrations of tBOOH |  |  | pEC50 ([1]; exposure window 2–26 hpf, evaluated at 50 hpf): 2.57
2 | CCOC(=O)/C=C\C(=O)OCC [Diethyl maleate (DEM), diethyl maleate] | 0.5 | no significant effects were observed | shifted the lethality concentration–effect curves significantly | statistically significant drift in the concentration–effect curves for lethality and dysmorphogenesis to lower concentrations of TCHQ | a significant shift in the concentration–response curves to lower concentrations of tBOOH | < 100 | 5.82 | 
3 | CC(=O)N[C@@H](CS)C(=O)O [N-acetyl-L-cysteine (NAC), N-acetyl-L-cysteine] | 250 | no significant effects were observed |  |  |  |  | 3.04 | LC50 ([3]; exposure window 2–26 hpf): 1870 µM; Mortality of embryos exposed to tBOOH after pre-exposure [2]: no significant effects in mortality of the embryos were observed; LC50 (95% CI) of LPS after pre-exposure to the modulator ([2]; zebrafish, in vivo, pH 7.4): 51.6 µg/mL * (48.8–54.5); LC50 (95% CI) of TCHQ after pre-exposure to the modulator ([2]; zebrafish, in vivo, pH 7.4): 19.6 µM * (16.6–23.3)
4 | COC(=O)[C@@H](N)CCCNC(N)=N[N+](=O)[O-] [Nω-nitro L-arginine methyl ester hydrochloride] | 5 | significant reduction in dysmorphogenic effects | shifted the lethality concentration–effect curves significantly | significantly shifted to higher concentrations of TCHQ | significantly drifted the tBOOH concentration–response curves to higher concentrations | > 100 | 4.35 | Mortality of embryos exposed to tBOOH after pre-exposure [2]: no significant effects in mortality of the embryos were observed
5 | O=c1c(O)c(-c2ccc(O)c(O)c2)oc2cc(O)cc(O)c12 [Quercetin, quercetin hydrate] | 20 |  |  |  |  | > 30 |  | 
6 | CC(C)(C)OO [Tert-butyl hydroperoxide (tBOOH), Tert-butyl hydroperoxide] |  |  |  |  |  |  |  | pEC50 ([1]; Danio rerio, exposure window 26–50 hpf, evaluated at 50 hpf): 2.80; pEC50 ([4]; read-out: EC50 (95% CI) for dysmorphogenesis of tBOOH): 2.79; pEC50 [5]: 2.79
7 | Oc1c(Cl)c(Cl)c(O)c(Cl)c1Cl [Tetrachlorohydroquinone (TCHQ), Tetrachlorohydroquinone] |  |  |  |  |  |  |  | LC50 ([3]; exposure window 26–50 hpf): 16 µM; pEC50 ([1]; Danio rerio): 5.41; Compound-specific dysmorphogenic effect ([1]; exposure 26–50 hpf): produced an effect in the pigmentation of the embryos; LC50 [6]: 15.2 µM; pEC50 ([4]; read-out: EC50 (95% CI) for dysmorphogenesis of TCHQ): 5.05
8 | (±)-α-tocopherol [Vit. E] | 100 |  |  |  |  |  |  | LC50 ([1]; exposure window 2–26 hpf, not calculated, reason in footnote, read-out: LC50 (lethal concentration 50)): > 30 µM
